# Assay results: patent publication US7186831B2, “5-halo-2-alkyl[1,2,4]triazolo[1,5-a]pyrimidin-7-amines” (priority 2001, dated 2007)
# Columns and labels:
# [1] = tested on: Puccinia recondita; assay: Puccinia test (wheat)/protective; format: in vivo; conditions: protective, application rate 500 g/ha, evaluation 10 days after inoculation
# Experimental: Puccinia Test (Wheat)/Protective • Solvent: 25 parts by weight of N,N-dimethylacetamide • Emulsifier: 0.6 part by weight of alkylaryl polyglycol ether To produce a suitable preparation of active compound, 1 part by weight of active compound is mixed with the stated amounts of solvent and emulsifier and the concentrate is diluted with water to the desired concentration. To test for protective activity, the young plants are sprayed with the active compound preparation at the application rate indicated. After the spray coating has dried on, the plants are sprayed with a conidia suspension of Puccinia recondita. The plants spend 48 hours at 20° C. and 100% relative humidity in an incubation cabin. The plants are then placed in a greenhouse at a temperature of about 20° C. and a relative humidity of 80% in order to promote the development of rust pustules. Evaluation is made 10 days after inoculation. 0% denotes an efficacy corresponding to that of the control, while an efficacy of 100% denotes that no infestation is observed.
# [2] = tested on: Sphaerotheca fuliginea; assay: Spaerotheca test (cucumber)/protective; format: in vivo; conditions: protective, application rate 750 g/ha, evaluation 7 days after inoculation
# Experimental: Spaerotheca Test (Cucumber)/Protective • Solvent: 49 parts by weight of N,N-dimethylformamide • Emulsifier: 1 part by weight of alkylaryl polyglycol ether To produce a suitable preparation of active compound, 1 part by weight of active compound is mixed with the stated amounts of solvent and emulsifier and the concentrate is diluted with water to the desired concentration. To test for protective activity, the young cucumber plants are sprayed with the active compound preparation at the application rate indicated. 1 day after treatment, the plants are inoculated with a spore suspension of Sphaerotheca fuliginea. The plants are then placed in a greenhouse at a temperature of 23° C. and at a relative humidity of 70%. Evaluation is made 7 days after inoculation. 0% denotes an efficacy corresponding to that of the control, while an efficacy of 100% denotes that no infestation is observed.
# [3] = log P by HPLC; format: physicochemical; conditions: HPLC, gradient method, acetonitrile/0.1% aqueous phosphoric acid; EEC directive 79/831 Annex V. A8
# [4] = tested on: Podosphaera leucotricha; assay: Podosphaera test (apple)/protective; format: in vivo; conditions: protective, application rate 100 g/ha, evaluation 10 days after inoculation
# Experimental: Podosphaera Test (Apple)/Protective • Solvent: 24.5 parts by weight of acetone • 24.5 parts by weight of dimethylacetamide • Emulsifier: 1 part by weight of alkylaryl polyglycol ether
# To produce a suitable preparation of active compound, 1 part by weight of active compound is mixed with the stated amounts of solvent and emulsifier and the concentrate is diluted with water to the desired concentration.
# To test for protective activity, the young plants are sprayed with the active compound preparation at the application rate indicated. After the spray coating has dried on, the plants are inoculated with an aqueous spore suspension of the apple mildew causative organism Podosphaera leucotricha. The plants are then placed in a greenhouse at about 23° C. and at a relative humidity of about 70%.
# Evaluation is made 10 days after inoculation. 0% denotes an efficacy corresponding to that of the control, while an efficacy of 100% denotes that no infestation is observed.
SMILES,Efficacy in % [2] [%],chromatographic logP [3],logP [3],also measured
C[C@H](Nc1c(-c2c(F)cc(F)cc2F)c(Cl)nc2nc(C(F)(F)F)nn12)C(F)(F)F [Example 3],93,3.94,,Efficacy in % [1]: 100%
CCc1nc2nc(Cl)c(-c3c(F)cc(F)cc3F)c(N[C@@H](C)C(F)(F)F)n2n1 [Example 4],93,3.39,,
Fc1cc(F)c(-c2c(Cl)nc3nc(C(F)(F)F)nn3c2NCCC(F)(F)F)c(F)c1 [Example 7],100,3.76,,Efficacy in % [4]: 100%
Fc1cc(F)c(-c2c(Cl)nc3nc(C(F)(F)F)nn3c2NCC(F)(F)F)c(F)c1 [Example 8],100,3.64,,Efficacy in % [4]: 100%
Fc1ccc(-c2c(Cl)nc3nc(C(F)(F)F)nn3c2N2CCSCC2)c(F)c1 [compound 810],,,4.04,
Cc1ccccc1Nc1c(-c2ccc(F)cc2F)c(Cl)nc2nc(C(F)(F)F)nn12 [compound 811],,,3.99,
Cc1cccc(Nc2c(-c3ccc(F)cc3F)c(Cl)nc3nc(C(F)(F)F)nn23)c1 [compound 812],,,4.04,
Cc1ccc(Nc2c(-c3ccc(F)cc3F)c(Cl)nc3nc(C(F)(F)F)nn23)cc1 [compound 813],,,4.08,
Fc1ccc(Nc2c(-c3ccc(F)cc3F)c(Cl)nc3nc(C(F)(F)F)nn23)cc1 [compound 814],,,3.69,
Fc1ccc(-c2c(Cl)nc3nc(C(F)(F)F)nn3c2N2CCc3ccccc3C2)c(F)c1 [compound 815],,,4.35,
Cc1nc2nc(Cl)c(-c3ccc(Cl)cc3Cl)c(N(N)CC(C)C)n2n1 [compound 816],,,3.71,
Cc1nc2nc(Cl)c(-c3ccc(Cl)cc3Cl)c(N3CCCCO3)n2n1 [compound 817],,,3.67,
CC(C)CC(C)Nc1c(-c2ccc(F)cc2F)c(Cl)nc2nc(C(F)(F)F)nn12 (centres unmarked) [compound 818],,,4.73,
